# Assay results from PubChem BioAssay AID2060888 (Molecular Pharmacology Branch, DTP, NCI, 2025).
# Tested on: 695427-040-R-J1-PDC complex spheroid viability
# Assay: Anticancer human tumor 695427-040-R-J1-PDC patient-derived colon adenocarcinoma cell line growth inhibition [RAS]
# Conditions: for IC50: curve of first compound; for viability, T/C: stronger effect = lower value
# Description: RAS pathway inhibitors in Combinations in Complex Spheroids
# A high-throughput screen of multi-cell type tumor spheroids was designed to identify active combinations of RAS pathway inhibitors and targeted small molecules. Complex spheroids include a stromal component modeled by human endothelial cells (HUVEC) and fibroblasts modeled by human mesenchymal stem cells (MSCs). The concentration ranges selected for each drug and investigational agent were based upon clinically achievable concentrations if the clinical Cmax of the agent was known.
# Compounds. The drugs and investigational agents: abemaciclib (NSC768073), cobimetinib (NSC768068), divarasib (GDC6063, NSC841802), docetaxel (NSC628503), GDC-1971 (RLY-1971, NSC841576), gemcitabine (NSC613327), inavolisib (NSC800729), ipatasertib (NSC767898), KB-0742 (NSC834161), MRTX-1133 (NSC836407), osimertinib (NSC779217), RMC-4630 (NSC839698), RMC-6236 (NSC851965), RMC-6291 (NSC852671), Ro-3306 (NSC812927), sapanisertib (NSC764658), SN-38 (NSC673596), staurosporine (NSC755774), SY5609 (NSC837396), and tovorafenib (DAY101, NSC766906), were obtained from the National Cancer Institute (NCI) Developmental Therapeutics Program Chemical Repository. The FDA-approved anticancer drug set is available from the NCI Developmental Therapeutics Program. […] The stock solutions were prepared in dimethyl sulfoxide (DMSO, Sigma-Aldrich, St. Louis, MO, cat. D2650) at 800-fold the tested concentration and stored at -70 degrees C prior to their use. All drugs and investigational agents were tested over a range starting from a high concentration at or near the clinical Cmax and decreasing in half-log increments. If the clinical Cmax for an agent had not been determined, the highest concentration tested was 10 microM.
# Cell Culture. All cells were maintained in an incubator at 37 degrees C and 5% CO2 with 95% humidity. The PDC lines were cultured according to standard operating procedures established by the NCI PDMR. All PDCs were thawed and cultured in Matrigel-coated flasks prepared with a working solution of 1X Ham's F-12 nutrient mix, without supplementation (Invitrogen, Waltham, MA, cat. 11765054), 100 U/mL penicillin-streptomycin (Invitrogen, cat. 15140122), and 2.5% Matrigel (Corning Inc., Corning, NY, cat. 354248) for the first three passages. The 362531-283-R-J2-PDC and 782815-120-R-J1-PDC lines were cultured in 6C/Colon 1B media, which includes advanced DMEM/F-12 (Thermo Fisher Scientific, cat. 12634028), 10 mM HEPES (Thermo Fisher Scientific, cat. 15630080), 1X GlutaMAX supplement (Thermo Fisher Scientific, cat. 35050061), 0.1 mg/mL primocin (InvivoGen, San Diego, CA, cat. ant-pm-2), 10% defined fetal bovine serum, heat inactivated (HyClone Laboratories Inc., Logan, UT, cat. SH30070.03HI), 50% L-WRN conditioned media (ATCC, cat. CRL-3276), 1.25 mM N-Acetyl-L-cysteine (Sigma-Aldrich, cat. A9165), 10 mM nicotinamide (Sigma-Aldrich, cat. N0636), 1X B-27 supplement (Thermo Fisher Scientific, cat. 17504044), 1X N-2 supplement (Thermo Fisher Scientific, cat. 17502048), 50 ng/mL human EGF (Thermo Fisher Scientific, cat. PHG0311), and 10 microM Y-27632 dihydrochloride (Tocris Bioscience, cat. 1254). The K12877-001-R-J1-PDC line was cultured in 6I media, which includes all 6C/Colon 1B media plus 10 ng/mL human FGF-10 (PeproTech, cat. 100-26), 1 ng/mL human FGF-2 (PeproTech, cat. 100-18B), 1 µM prostaglandin E2 (Tocris Bioscience, cat. 2296), […] hydrocortisone (Sigma-Aldrich, cat. H4001), and […] bovine insulin (Sigma-Aldrich, cat. I6634). The K86415-001-R-J1-PDC line was cultured in 6D media, which includes all 6C/Colon 1B media components minus the L-WRN conditioned media. The 485176-168-R4-J1-PDC was cultured in PANC media, which includes all 6C/Colon 1B media plus 100 ng/mL human FGF-10 (PeproTech, cat. 100-26), 500 nM SB-431542 (Selleckchem, cat. S1067), and 10 nM gastrin (Tocris Bioscience, cat. 3006). […]
# 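Further: viability read after seven days of drug exposure.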
# 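Wherever viability, T/C is given: 100% = DMSO vehicle control viability.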
compound,measurement,setting,value
Cc1nc(N2CCC3(CC2)COC(C)C3N)c(CO)nc1Sc1ccnc(N)c1Cl (centres undefined) + C=CC(=O)N1CCN(c2nc(OCC3CCCN3C)nc3c(F)c(-c4nc(N)cc(C)c4C(F)(F)F)c(Cl)cc23)C(C)C1,IC50,second compound 0.00316 µM,> 10 µM
same,IC50,second compound 0.01 µM,> 10 µM
same,IC50,second compound 0.0316 µM,> 10 µM
same,IC50,second compound 0.1 µM,> 10 µM
same,IC50,second compound 0.316 µM,> 10 µM
same,IC50,second compound 1 µM,9.77 µM
same,"viability, T/C","second compound 0.00316 µM, first compound 0.0316 µM",87%
same,"viability, T/C","second compound 0.00316 µM, first compound 0.1 µM",80.8%
same,"viability, T/C","second compound 0.00316 µM, first compound 0.316 µM",70.6%
same,"viability, T/C","second compound 0.00316 µM, first compound 1 µM",71%
same,"viability, T/C","second compound 0.00316 µM, first compound 3.16 µM",64.5%
same,"viability, T/C","second compound 0.00316 µM, first compound 10 µM",59.6%
same,"viability, T/C","second compound 0.01 µM, first compound 0.0316 µM",91.6%
same,"viability, T/C","second compound 0.01 µM, first compound 0.1 µM",78.9%
same,"viability, T/C","second compound 0.01 µM, first compound 0.316 µM",71.9%
same,"viability, T/C","second compound 0.01 µM, first compound 1 µM",68.7%
same,"viability, T/C","second compound 0.01 µM, first compound 3.16 µM",64.5%
same,"viability, T/C","second compound 0.01 µM, first compound 10 µM",51.9%
same,"viability, T/C","second compound 0.0316 µM, first compound 0.0316 µM",88.8%
same,"viability, T/C","second compound 0.0316 µM, first compound 0.1 µM",79%
same,"viability, T/C","second compound 0.0316 µM, first compound 0.316 µM",71.8%
same,"viability, T/C","second compound 0.0316 µM, first compound 1 µM",67.6%
same,"viability, T/C","second compound 0.0316 µM, first compound 3.16 µM",63%
same,"viability, T/C","second compound 0.0316 µM, first compound 10 µM",54.9%
same,"viability, T/C","second compound 0.1 µM, first compound 0.0316 µM",85.1%
same,"viability, T/C","second compound 0.1 µM, first compound 0.1 µM",78.7%
same,"viability, T/C","second compound 0.1 µM, first compound 0.316 µM",78.6%
same,"viability, T/C","second compound 0.1 µM, first compound 1 µM",67.5%
same,"viability, T/C","second compound 0.1 µM, first compound 3.16 µM",65.2%
same,"viability, T/C","second compound 0.1 µM, first compound 10 µM",57.7%
same,"viability, T/C","second compound 0.316 µM, first compound 0.0316 µM",81.1%
same,"viability, T/C","second compound 0.316 µM, first compound 0.1 µM",81.4%
same,"viability, T/C","second compound 0.316 µM, first compound 0.316 µM",75.4%
same,"viability, T/C","second compound 0.316 µM, first compound 1 µM",68.6%
same,"viability, T/C","second compound 0.316 µM, first compound 3.16 µM",65.3%
same,"viability, T/C","second compound 0.316 µM, first compound 10 µM",55.4%
same,"viability, T/C","second compound 1 µM, first compound 0.0316 µM",86.8%
same,"viability, T/C","second compound 1 µM, first compound 0.1 µM",80.3%
same,"viability, T/C","second compound 1 µM, first compound 0.316 µM",68.6%
same,"viability, T/C","second compound 1 µM, first compound 1 µM",59.9%
same,"viability, T/C","second compound 1 µM, first compound 3.16 µM",60.5%
same,"viability, T/C","second compound 1 µM, first compound 10 µM",47.5%
C=CC(=O)N1CCN(c2nc(OCC3CCCN3C)nc3c(F)c(-c4nc(N)cc(C)c4C(F)(F)F)c(Cl)cc23)C(C)C1 (centres undefined) + CCn1c(-c2cc(N3CCN(C)CC3)cnc2C(C)OC)c2c3cc(ccc31)-c1csc(n1)CC(NC(=O)C1CC1C)C(=O)N1CCCC(N1)C(=O)OCC(C)(C)C2,IC50,second compound 0.000949 µM,> 1 µM
same,IC50,second compound 0.003 µM,> 1 µM
same,IC50,second compound 0.00949 µM,> 1 µM
same,IC50,second compound 0.03 µM,> 1 µM
same,IC50,second compound 0.0949 µM,< 0.00316 µM
same,IC50,second compound 0.3 µM,< 0.00316 µM
same,"viability, T/C","second compound 0.000949 µM, first compound 0.00316 µM",91.6%
same,"viability, T/C","second compound 0.000949 µM, first compound 0.01 µM",115%
same,"viability, T/C","second compound 0.000949 µM, first compound 0.0316 µM",99.4%
same,"viability, T/C","second compound 0.000949 µM, first compound 0.1 µM",94.1%
same,"viability, T/C","second compound 0.000949 µM, first compound 0.316 µM",110%
same,"viability, T/C","second compound 0.000949 µM, first compound 1 µM",90%
same,"viability, T/C","second compound 0.003 µM, first compound 0.00316 µM",92.3%
same,"viability, T/C","second compound 0.003 µM, first compound 0.01 µM",99.9%
same,"viability, T/C","second compound 0.003 µM, first compound 0.0316 µM",85.7%
same,"viability, T/C","second compound 0.003 µM, first compound 0.1 µM",85%
same,"viability, T/C","second compound 0.003 µM, first compound 0.316 µM",98.9%
same,"viability, T/C","second compound 0.003 µM, first compound 1 µM",85.5%
same,"viability, T/C","second compound 0.00949 µM, first compound 0.00316 µM",94%
same,"viability, T/C","second compound 0.00949 µM, first compound 0.01 µM",69.2%
same,"viability, T/C","second compound 0.00949 µM, first compound 0.0316 µM",81.2%
same,"viability, T/C","second compound 0.00949 µM, first compound 0.1 µM",75.3%
same,"viability, T/C","second compound 0.00949 µM, first compound 0.316 µM",76.4%
same,"viability, T/C","second compound 0.00949 µM, first compound 1 µM",69.1%
same,"viability, T/C","second compound 0.03 µM, first compound 0.00316 µM",69.5%
same,"viability, T/C","second compound 0.03 µM, first compound 0.01 µM",63.7%
same,"viability, T/C","second compound 0.03 µM, first compound 0.0316 µM",57%
same,"viability, T/C","second compound 0.03 µM, first compound 0.1 µM",55.5%
same,"viability, T/C","second compound 0.03 µM, first compound 0.316 µM",56.3%
same,"viability, T/C","second compound 0.03 µM, first compound 1 µM",59%
same,"viability, T/C","second compound 0.0949 µM, first compound 0.00316 µM",52.3%
same,"viability, T/C","second compound 0.0949 µM, first compound 0.01 µM",47.7%
same,"viability, T/C","second compound 0.0949 µM, first compound 0.0316 µM",42.3%
same,"viability, T/C","second compound 0.0949 µM, first compound 0.1 µM",42.8%
same,"viability, T/C","second compound 0.0949 µM, first compound 0.316 µM",47.1%
same,"viability, T/C","second compound 0.0949 µM, first compound 1 µM",45.1%
same,"viability, T/C","second compound 0.3 µM, first compound 0.00316 µM",39.2%
same,"viability, T/C","second compound 0.3 µM, first compound 0.01 µM",34.7%
same,"viability, T/C","second compound 0.3 µM, first compound 0.0316 µM",42.7%
same,"viability, T/C","second compound 0.3 µM, first compound 0.1 µM",38%
same,"viability, T/C","second compound 0.3 µM, first compound 0.316 µM",36.8%
same,"viability, T/C","second compound 0.3 µM, first compound 1 µM",37.1%
